Results: patent USRE43327E1, “Hydrophobic polyamine analogs and methods for their use” (Aminex Therapeutics, Inc., priority 2001, dated 2012)
Like-named read-outs stand apart in the source and are kept apart here.

What was measured:
Assay type in all cases: cell-based
[1] = test system: 4 cell lines (A375, MDA-MB-231, PC-3, SK-OV-3); assay: Growth inhibition with DFMO, average over 4 cell lines; conditions: with DFMO
[2] = test system: PC-3; assay: Growth inhibition assay, PA alone, PC-3; conditions: PA alone (no DFMO), six days, repeat determinations, read-out: Cell Line IC50 PC-3
Protocol: (§1) Medias were obtained from Mediatech, Inc. (Herdon, Va.) and serums from Gibco BRL (Gaithersburg, Md.). 50 U/ml penicillin, 50 μg/ml streptomycin and 2 mM L-glutamine (all from Bio Whittaker, Walkersville, Md.) were included in all cultures. […] When cells were cultured with polyamines or ORI compounds, 1 mM aminoguanidine (AG; Sigma) was included to inhibit serum amine oxidase activity.

[3] = test system: A375; assay: Growth inhibition assay (MTS/PMS) with DFMO, A375; conditions: in the presence of DFMO (1-5 mM), 1 mM AG, 0.5 μM SPD, six days; repeat determinations; read-out: Cell Line EC50 A375
Protocol: as §1

[4] = test system: PC-3; assay: Growth inhibition assay (MTS/PMS) with DFMO, PC-3; conditions: in the presence of DFMO (1-5 mM), 1 mM AG, 0.5 μM SPD, six days; repeat determinations; read-out: Cell Line EC50 PC-3
Protocol: as §1

[5] = test system: A375; assay: Growth inhibition assay, PA alone, A375; conditions: PA alone (no DFMO), six days, repeat determinations, read-out: Cell Line IC50 A375
Protocol: as §1

[6] = test system: MDA-MB-231; assay: Growth inhibition assay, PA alone, MDA-MB-231; conditions: PA alone (no DFMO), six days, repeat determinations, read-out: Cell Line IC50 MDA-MB-231
Protocol: as §1

[7] = test system: SK-OV-3; assay: Growth inhibition assay, PA alone, SK-OV-3; conditions: PA alone (no DFMO), six days, repeat determinations, read-out: Cell Line IC50 SK-OV-3
Protocol: as §1

[8] = test system: MDA-MB-231; assay: Growth inhibition assay (MTS/PMS) with DFMO, MDA-MB-231; conditions: in the presence of DFMO (1-5 mM), 1 mM AG, 0.5 μM SPD, six days; repeat determinations; read-out: Cell Line EC50 MDA-MB-231
Protocol: as §1

[9] = test system: SK-OV-3; assay: Growth inhibition assay (MTS/PMS) with DFMO, SK-OV-3; conditions: in the presence of DFMO (1-5 mM), 1 mM AG, 0.5 μM SPD, six days; repeat determinations; read-out: Cell Line EC50 SK-OV-3
Protocol: as §1

[10] = Table 3, average over cell lines, read-out: AVG. EC50
[11] = Homo sapiens, MDA-MB-231, 144 h
[12] = Table 1, average EC50 for 4 cell lines, read-out: Ave EC50 value
[13] = Table 2, average EC50 for 4 cell lines, read-out: Ave EC50 value

Row | SMILES | EC50 [1, 10] [µM] | IC50 ([2]; Homo sapiens, PC-3, 144 h) [µM] | IC50 ([5]; Homo sapiens, A-375, 144 h) [µM] | IC50 [6, 11] [µM] | IC50 ([7]; Homo sapiens, SK-OV-3, 144 h) [µM] | other results
1 | CC(C)CC(C)NCCCCC(N)C(=O)NCCCNCCCCNCCCN (single isomer, unassigned) [VA21] | 1.3 | > 100 | – | – | – | –
2 | NCCCNCCCCNCCCNC(=O)[C@@H](N)CCCCNC(=O)c1ccccc1 [IA24] | – | – | – | – | – | EC50 [3]: 1.56 µM; EC50 [4]: > 30 µM; IC50 [5]: > 30 µM; IC50 [2]: > 30 µM
3 | CCCCCCCCCCCCCCCCCC(=O)NCCCC[C@@H](N)C(=O)NCCCNCCCCNCCCN [IB2] | 0.083 | > 3 | > 3 | > 3 | > 3 | –
4 | CCCCCCCC(=O)NCCCC[C@@H](N)C(=O)NCCCNCCCCNCCCN [IB7] | 11.2 | > 30 | > 30 | > 30 | > 30 | –
5 | CCCCCCC(=O)NCCCC[C@@H](N)C(=O)NCCCNCCCCNCCCN [IB8] | 3.55 | > 100 | > 100 | > 100 | > 100 | –
6 | CCCCCC(=O)NCCCC[C@@H](N)C(=O)NCCCNCCCCNCCCN [IB9] | 11.5 | > 100 | > 100 | > 100 | > 100 | –
7 | CCCC(=O)NCCC[C@@H](N)C(=O)NCCCNCCCCNCCCN [IB10] | 11.7 | > 100 | > 100 | > 100 | > 100 | EC50 [1, 12]: 12 µM
8 | NCCCNCCCCNCCCNC(=O)[C@H](N)CCCCNC(=O)c1ccccc1 [IB24] | > 30 | > 30 | > 30 | > 30 | > 30 | –
9 | NCCCNCCCCNCCCNC(=O)[C@H](N)CCCCNC(=O)c1ccco1 [IB25] | – | > 30 | > 30 | – | > 30 | –
10 | NCCCNCCCCNCCCNC(=O)[C@H](N)CCCCNC(=O)c1ccc(-c2ccccc2)cc1 [IB26] | 0.955 | > 100 | – | > 100 | > 100 | –
11 | NCCCNCCCCNCCCNC(=O)[C@H](N)CCCCNC(=O)C(c1ccccc1)c1ccccc1 [IB29] | – | > 100 | – | > 100 | > 70 | –
12 | NCCCNCCCCNCCCNC(=O)[C@H](N)CCCCNC(=O)C12CC3CC(CC(C3)C1)C2 [IB30] | 1.24 | – | – | > 100 | – | IC50 [6]: 84.4 µM
13 | NCCCNCCCCNCCCNC(=O)[C@H](N)CCCNC(=O)C1CCCCC1 [IB32] | – | > 100 | > 100 | > 100 | > 100 | EC50 [1, 12]: 3.6 µM
14 | CC(C)C(=O)NCCCC[C@@H](N)C(=O)NCCCNCCCCNCCCN [IB33] | 8.58 | > 100 | > 100 | > 100 | > 100 | –
15 | CC(C)(C)C(=O)NCCCC[C@@H](N)C(=O)NCCCNCCCCNCCCN [IB34] | 8.29 | > 100 | > 100 | > 100 | > 100 | –
16 | CC(C)(C)CC(=O)NCCCC[C@@H](N)C(=O)NCCCNCCCCNCCCN [IB36] | 26.9 | > 100 | > 100 | > 100 | > 100 | –
17 | NCCCNCCCCNCCCNC(=O)[C@H](N)CCCCNC(=O)CC1CC2CCC1C2 (stereo partly shown) [IB37] | 35.1 | > 100 | 19.8 | > 100 | 18.3 | –
18 | CC(C)[C@@H]1CC[C@@H](C)C[C@H]1OCC(=O)NCCCC[C@@H](N)C(=O)NCCCNCCCCNCCCN [IB38] | 13.4 | 28 | 21.3 | 63.9 | 60.1 | –
19 | NCCCNCCCCNCCCNC(=O)[C@H](N)CCCCNC(=O)C(F)(F)C(F)(F)C(F)(F)F [IB39] | – | – | – | – | – | EC50 [8]: 52.5 µM; EC50 [4]: > 100 µM; EC50 [9]: > 100 µM; IC50 [6]: 4.26 µM; IC50 [2]: > 100 µM; IC50 [7]: > 100 µM
20 | CC(C)(C)OC(=O)NCCCC[C@@H](N)C(=O)NCCCNCCCCNCCCN [IB41] | – | – | – | – | – | EC50 [8]: 31.9 µM; EC50 [4]: 6.73 µM

Row | SMILES | EC50 [1, 10] [µM] | IC50 ([2]; Homo sapiens, PC-3, 144 h) [µM] | IC50 ([5]; Homo sapiens, A-375, 144 h) [µM] | IC50 [6, 11] [µM] | IC50 ([7]; Homo sapiens, SK-OV-3, 144 h) [µM] | other results
21 | CCCCCCCCCCCCCCCC(=O)NCCCC[C@H](NC(=O)CCCCCCCCCCCCCCC)C(=O)NCCCNCCCCNCCCN [IE4] | – | – | – | – | – | EC50 [8]: 0.267 µM; EC50 [4]: 0.2 µM; EC50 [9]: 0.132 µM; IC50 [6]: 17.9 µM; IC50 [2]: 21.5 µM; IC50 [7]: 7.25 µM
22 | NCCCNCCCCNCCCNC(=O)[C@@H](N)CCCCNS(=O)(=O)c1ccc(CNC(=O)c2ccc(Cl)cc2)s1 [IIA21] | – | – | – | – | – | EC50 [8]: 1.4 µM; EC50 [4]: 0.46 µM
23 | CCCCCCCCCCCCCCCCS(=O)(=O)NCCCC[C@H](NS(=O)(=O)CCCCCCCCCCCCCCCC)C(=O)NCCCNCCCCNCCCN [IIE10] | – | – | – | – | – | EC50 [8]: 0.392 µM; EC50 [4]: 0.152 µM; EC50 [9]: 0.272 µM; IC50 [6]: 24.5 µM; IC50 [2]: 14.3 µM; IC50 [7]: 20.1 µM
24 | NCCCNCCCCNCCCNC(=O)[C@@H](N)CCCCNCC1CCCCC1 [IVA27] | 4.69 | – | – | – | – | IC50 [5]: > 100 µM; IC50 [6]: > 100 µM; IC50 [2]: > 100 µM; IC50 [7]: > 100 µM
25 | CCCCNCCCC[C@@H](N)C(=O)NCCCNCCCCNCCCN [IVB3] | 2.2 | > 100 | > 100 | > 100 | > 100 | –
26 | CCCCCCNCCCC[C@@H](N)C(=O)NCCCNCCCCNCCCN [IVB5] | 0.868 | > 100 | > 100 | > 100 | > 100 | –
27 | CCCCCCCNCCCC[C@@H](N)C(=O)NCCCNCCCCNCCCN [IVB6] | 0.365 | > 100 | > 100 | > 100 | > 100 | –
28 | CC(C)CCNCCCC[C@@H](N)C(=O)NCCCNCCCCNCCCN [IVB21] | 1.52 | > 100 | > 100 | > 100 | > 100 | IC50 [5]: 71 µM
29 | CC(C)(C)CCNCCCC[C@@H](N)C(=O)NCCCNCCCCNCCCN [IVB22] | 1.33 | > 100 | > 100 | > 100 | > 100 | –
30 | CC(C)CNCCCC[C@@H](N)C(=O)NCCCNCCCCNCCCN [IVB23] | 1.79 | > 100 | > 100 | > 100 | > 100 | –
31 | CC(C)(C)CNCCCC[C@@H](N)C(=O)NCCCNCCCCNCCCN [IVB24] | 3.14 | – | > 100 | > 100 | > 100 | IC50 [5]: 84.4 µM
32 | NCCCNCCCCNCCCNC(=O)[C@H](N)CCCCNCC1CC2C=CC1C2 (stereo partly shown) [IVB25] | 0.939 | > 100 | – | > 100 | – | IC50 [6]: 61 µM
33 | NCCCNCCCCNCCCNC(=O)[C@H](N)CCCCNCC1CCCCC1 [IVB27] | 0.414 | > 100 | – | > 100 | – | –
34 | CC(C)=CCC[C@H](C)CCNCCCC[C@@H](N)C(=O)NCCCNCCCCNCCCN [IVB28] | 10.7 | 17.8 | 5.6 | 18.9 | 19.8 | –
35 | NCCCNCCCCNCCCNC(=O)[C@H](N)CCCCNCc1ccc(-c2ccccc2)cc1 [IVB33] | – | > 100 | – | > 100 | 72.9 | –
36 | NCCCNCCCCNCCCNC(=O)[C@H](CCCCNCc1ccccc1)NCc1ccccc1 [IVE30] | – | – | – | – | – | EC50 [8]: 4.2 µM; EC50 [4]: 1.7 µM
37 | CC(C)(C)CNCCCC[C@H](N)C(=O)NCCCNCCCCNCCCN [VA22] | 6.98 | > 100 | > 100 | > 100 | > 100 | EC50 [1, 13]: 2.42 µM; IC50 [5]: 83.5 µM
38 | CCCC(CCC)NCCCC[C@H](N)C(=O)NCCCNCCCCNCCCN [VA26] | 3.91 | > 100 | > 100 | > 100 | > 100 | –
39 | NCCCNCCCCNCCCNC(=O)[C@@H](N)CCCCNCC12CC3CC(CC(C3)C1)C2 [VA27] | 6.45 | > 100 | > 100 | > 100 | > 100 | EC50 [1, 13]: 26.8 µM
40 | CC(C)[C@@H]1CC[C@@H](C)CC1NCCCC[C@@H](N)C(=O)NCCCNCCCCNCCCN (stereo partly shown) [VB28] | 0.905 | > 100 | > 100 | > 100 | > 100 | IC50 [5]: 64.5 µM
